Test results: patent publication US8071810B2, “C5a receptor antagonists” (Jerini AG, priority 2005, dated 2011)
≈ marks a conversion by molar mass, not a printed value. Like-named read-outs stand apart in the source and are kept apart here.

What was measured:
[1] = test system: E. coli induced oxidative burst in human whole blood; assay: E. coli induced oxidative burst in human whole blood (Phagoburst kit, Example 26); format: cell-based; settings: read-out: IC50 for the inhibition of the E. coli induced oxidative burst in human whole blood
Method: The whole blood assay is carried out according to the instructions from the Phagoburst-Kit (Orpegen Pharma). 50 μg/ml of Refludan is used to inhibit blood clotting (Mollnes et al. 2002 Blood 100: 1869). Freshly drawn, anticoagulated blood is cooled over ice and 100 μl thereof are added to 10 μl of the compound solution containing at most 1.3% of DMSO. The mixture is incubated for 10 minutes at 37° C. After this the samples are put on ice again and 20 μl of opsonisated E. coli suspension (10^9 cells/ml) is added followed by 10 minutes of incubation at 37° C. 20 μl of the substrate are added to the cells followed by another 10 minutes of incubation at 37° C. After this 2 ml of lysis buffer are added to the cells, which are then kept at room temperature for 20 minutes. The cellular components are separated by centrifugation at 250×g for 5 minutes. The supernatant is discarded and 3 ml of washing solution are added to the pellet. The cells are centrifuged again and the resulting pellet is taken up in 200 μl DNA staining solution. The neutrophiles are analysed by means of a FACS device (FACSCalibur, Becton-Dickinson) according to the parameters given in the manual. […] It can be seen that, due to the determined activity, the compounds of this invention are suited to be used as therapeutics in human.

[2] = target: T1, human C5a receptor (CD88) (Homo sapiens, UniProt P21730); assay: C5a induced enzyme (glucosaminidase) release assay in RBL cells expressing the human C5a receptor (Example 28); format: cell-based; settings: for IC50: RBL cells with human C5aR
T1 construct: expressed in transfected cells; host or cells: rat basophilic leukemia (RBL) cells, stably transfected
T1 sequence (P21730 1-350): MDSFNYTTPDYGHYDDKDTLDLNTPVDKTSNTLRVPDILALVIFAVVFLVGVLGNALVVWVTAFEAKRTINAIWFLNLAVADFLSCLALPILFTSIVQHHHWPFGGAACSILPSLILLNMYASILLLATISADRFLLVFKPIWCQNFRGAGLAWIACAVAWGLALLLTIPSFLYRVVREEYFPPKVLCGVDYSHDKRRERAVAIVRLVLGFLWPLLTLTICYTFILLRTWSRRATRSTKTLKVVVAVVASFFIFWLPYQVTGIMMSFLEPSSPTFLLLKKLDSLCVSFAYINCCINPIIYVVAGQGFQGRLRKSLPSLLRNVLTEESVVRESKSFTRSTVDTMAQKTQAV
Outline: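 Rat basophilic leukemia (RBL) cells expressing human C5a receptor, at 2×10^6 cells/ml, primed with cytochalasin B, then incubated with test compound 10 min at 37 °C.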

C5a receptor = target: T2, C5a receptor (Homo sapiens, UniProt P21730); assay: Binding of 125I-C5a to human C5aR transfected HEK293 cells (Example 27); design: expressed in transfected cells; host or cells: HEK293 cells; settings: 125I-C5a tracer, read-out: IC50 for the inhibition of the binding of C5a to the C5a receptor
T2 sequence (P21730 1-350): T1 sequence (P21730 1-350)
Method: The binding studies are done as determination of IC50 values with radioactively labeled C5a (125I) as tracer. For this purpose, human C5aR transfected HEK293 cells are adjusted to a concentration of […]. 30 μl of the cell suspension are added into a microtiter plate. Then the C5a receptor antagonists are added followed by 10 minutes pre-incubation at room temperature. After that, 10 μl of labelled C5a are added (15.000 cpm). The mixture is now incubated over ice for 30 minutes. After this the cells are isolated by means of a filter plate (Millipore MHVB 4510) and washed two times with 100 μl HAG-CM each (see example 32). The cells are dried and, after transferring the filter plate onto the adapter plate (Canberra 6005178), 50 μl/well Microscint 0 are added and the plate is measured in the scintillation counter.

[3] = Solubility in aqueous HEPES buffer by HPLC (Example 33); format: physicochemical; settings: kinetic from dmso stock
Method: To determine the solubility the compound to be measured is dissolved (e.g, […] of a 5 mM solution in DMSO) in organic solvent (e.g. 198 μl DMSO) as well as in aqueous buffer solution (e.g. 198 μl HEPES buffer). Both solutions are analyzed via analytical HPLC and the areas under the peaks are compared. The value for the organic solution is taken as 100%.

[4] = target: T1, human C5a receptor (CD88); assay: Agonism in enzyme release assay without C5a stimulus (Example 32); format: cell-based; settings: concentration applied 7.1 μM
Method: The assay has been described by Köhl (Köhl 1997 The Anaphylatoxins. In: Dodds, A. W., Sim, R. B. (Eds.), Complement: A Practical Approach. Oxford: 135). Basophile leukemia cells from rats (RBL), which express the human C5a receptor (CD88), are cultivated in DMEM with 10% fetal calf serum, 100 U/ml penicillin, 100 μg/ml streptomycin and 2 mM glutamin (all constituents are from Biochrome, Berlin) at 37° C. and with 10% CO2 until a confluent layer is obtained. All following details refer to a tissue culture flask with 75 cm^2 surface. The used up medium is removed. The cells are washed with 10 ml PBS (Dulbecco's PBS, Biochrome) and then covered with 3 ml cell dissociation solution (CDS, Sigma). The cells are incubated for 1 minute at room temperature. Then the CDS is removed and the cells are incubated for further 10-15 minutes at 37° C. to detach the cells completely from the flask. 20 μl solution of the compound to be testet are used in the assay. The assay solution must not contain more than 2.8% DMSO. The dilution series are prepared in ⅓ or ½ steps. To the 20 μl of the compound solutions 75 μl RBL cells are added which are prepared as follows: After the detachment of the cells from the flask surface they are taken up with 10 ml HAG-CM (20 mM HEPES; 125 mM NaCl, 5 mM KCl, 1 mM CaCl2, 1 mM MgCl2, 0.5 mM glucose, 0.25% BSA. HEPES preparation: 2.3 g/l HEPES salt+2.66 g/l HEPES acid) thermostated at 37° C. The cells are counted and centrifuged (200 g, 10 min). The cell pellet is taken up with pre-heated HAG-CM, and the cell density is adjusted to 2×10^6 Zellen/ml. The cells are incubated for 5 minutes at 37° C. 2.7 μl of a cytochalasin B solution (1000 μg/ml in DMSO, Sigma) are added per ml cell suspension. The Zellen are incubated for another 3 min at 37° C. Then, 75 μl of the cell suspension are added to the 20 μl solution containing the compounds to be tested. Thus a volume of […] per well is obtained. The cells are again incubated for 10 minutes at 37° C. Then 10 μl hrC5a (10.5 nM in HAG-CM, Sigma) are added per well, which is followed by 5 minutes incubation at 37° C. After this the plates are put on ice and centrifuged for 3 minutes at 1200×g and 4° C. 75 μl of the supernatant are added to 100 μl substrate solution (2.7 mg/ml p-nitrophenyl-N-acetyl-b-D-glucosaminide (Sigma) in 42.5 mM sodium acetate, pH 4.5). The plate is incubated for 1 hour at 37° C. Per well 75 μl 0.4 M glycine (pH 10.4) are added. After this the plate can be measured at a wave length of 405 nm. The IC50 value is determined by solving the four parameter equation y=((A−D)/(1+(x/C)^B))+D.
The only difference is the fact that 30 μl of the substance to be tested are mixed with 75 μl of the cell suspension described in example 28. The cells are not pre-incubated and no C5a is added to stimulate enzyme release.

[5] = ratio of enzyme release IC50 values
[6] = inhibition of C5a induced enzyme release, read-out: Activity-range (antagonistic activity, IC50 enzyme release)
[7] = read-out: IC50 for the inhibition of C5a induced enzyme release

Row | Compound | IC50 [2, 6] | other results
1 | CCc1c(N)cc(Cl)c(CC)c1NC(=O)N(Cc1ccc(Cl)cc1)c1ccc(NC)cc1 [compound 120, 3-(3-amino-5-chloro-2,6-diethyl-phenyl)-1-(4-chloro-benzyl)-1-(4-methylamino-phenyl)-urea] |  | IC50 [1]: 1900 nM; Improvement of the antagonistic activity by a factor (vs compound 98, CH2 exchanged by NH) [2, 5]: 4.5; IC50 (C5a receptor): 86.5 nM
2 | CCc1c(N)cc(Cl)c(CC)c1NC(=O)N(c1ccc(C(C)C)cc1)C1CCc2cc(Cl)ccc21 (centres unmarked) [compound 88, 3-(3-amino-5-chloro-2,6-diethyl-phenyl)-1-(5-chloro-indane-1-yl)-1-(4-isopropyl-phenyl)-urea] | 60 to 200 nM | IC50 (C5a receptor): 44 nM
3 | CCc1c(N)cc(Cl)c(CC)c1NC(=O)N(Cc1ccc(OC)cc1)c1ccc(C(C)C)cc1 [compound 31, 3-(3-amino-5-chloro-2,6-diethyl-phenyl)-1-(4-isopropyl-phenyl)-1-(4-methoxy-benzyl)-urea] |  | IC50 [2, 7]: 164 nM; Increase of the antagonistic activity by a factor (vs compound 24, NH2 group introduced) [2, 5]: 6.4; solubility [3]: 2 µM (≈ 0.96 µg/mL); Agonism (% of the maximum enzyme release induced by C5a) [4]: 0.12%
4 | CCc1ccc(N(C(=O)Nc2c(CC)c(N)cc(Cl)c2CC)C2CCc3cc(Cl)ccc32)cc1 (centres unmarked) [compound 104, 3-(3-amino-5-chloro-2,6-diethyl-phenyl)-1-(5-chloro-indane-1-yl)-1-(4-ethyl-phenyl)-urea] | 60 to 200 nM | 
5 | CCc1c(Cl)cc(NCc2nccn2C)c(CC)c1NC(=O)N(Cc1ccc(OC)cc1)c1ccc(C(C)C)cc1 [compound 38, 3-{3-chloro-2,6-diethyl-5-[(1-methyl-1H-imidazol-2-ylmethyl)-amino]-phenyl}-1-(4-isopropyl-phenyl)-1-(4-methoxy-benzyl)-urea] | 200 to 5000 nM | 
6 | CCc1c(N)cc(Cl)c(CC)c1NC(=O)N(CC1CCCCC1)c1ccc(C(C)C)cc1 [compound 60, 3-(3-amino-5-chloro-2,6-diethyl-phenyl)-1-cyclohexylmethyl-1-(4-isopropyl-phenyl)-urea] | 200 to 5000 nM | 
7 | CCc1c(N)cc(Cl)c(CC)c1NC(=O)N(c1ccc(OC)c(F)c1)[C@@H](C)c1ccc(Cl)cc1 [compound 94, (S)-3-(3-amino-5-chloro-2,6-diethyl-phenyl)-1-[1-(4-chloro-phenyl)-ethyl]-1-(3-fluoro-4-methoxy-phenyl)-urea] | < 60 nM | 
8 | CCc1c(N)cc(Cl)c(CC)c1NC(=O)N(Cc1ccc(C)nc1)c1ccc(OC)c2ccccc12 |  | IC50 [2, 7]: 55 nM
9 | CCc1ccc(N(Cc2cnc(N(C)C)nc2)C(=O)Nc2c(CC)c(N)cc(Cl)c2CC)cc1 [compound 121, 3-(3-amino-5-chloro-2,6-diethyl-phenyl)-1-(2-dimethylamino-pyrimidin-e5-ylmethyl)-1-(4-ethyl-phenyl)-urea] | 200 to 5000 nM | 
10 | CCc1c(N)cc(Cl)c(CC)c1NC(=O)N(c1ccc(C(C)C)cc1)[C@@H](C)c1ccc(Cl)cc1 [compound 78, (S)-3-(3-amino-5-chloro-2,6-diethyl-phenyl)-1-[1-(4-chlor-phenyl)-ethyl]-1-(4-isopropyl-phenyl)-urea] | < 60 nM | 
11 | CCc1c(N)cc(Cl)c(CC)c1NC(=O)N(c1ccc2[nH]ccc2c1)[C@@H](C)c1ccc(Cl)cc1 [compound 141, (S)-3-(3-amino-5-chloro-2,6-diethyl-phenyl)-1-[1-(4-chloro-phenyl)-ethyl]-1-(1H-indol-5-yl)-urea] | < 60 nM | 
12 | CCc1ccc(N)c(CC)c1NC(=O)N(Cc1ccc2c(c1)CCO2)c1ccc(C(C)C)cc1 [compound 67, 3-(3-amino-2,6-diethyl-phenyl)-1-(2,3-dihydro-benzofuran-5-ylmethyl)-1-(4-isopropyl-phenyl)-urea] | 200 to 5000 nM | 
13 | CCc1c(N)cc(Cl)c(CC)c1NC(=O)N(c1ccc(C(C)C)cc1)C1CCSc2ccccc21 (centres unmarked) [compound 101, 3-(3-amino-5-chloro-2,6-diethyl-phenyl)-1-(4-isopropyl-phenyl)-1-thiochroman-4-yl-urea] | 200 to 5000 nM | 
14 | CCc1c(N)cc(Cl)c(CC)c1NC(=O)N(c1ccc(C(C)C)cc1)C1CCOc2ccccc21 (centres unmarked) [compound 89, 3-(3-amino-5-chloro-2,6-diethyl-phenyl)-1-chroman-4-yl-1-(4-isopropyl-phenyl)-urea] | 200 to 5000 nM | 
15 | CCc1c(N)cc(Cl)c(CC)c1NC(=O)N(c1ccc(C(C)C)cc1)[C@@H]1CCCc2ccccc21 [compound 41, (R)-3-(3-amino-5-chloro-2,6-diethyl-phenyl)-1-(4-isopropyl-phenyl)-1-(1,2,3,4-tetrahydro-naphthaline-1-yl)-urea] | 200 to 5000 nM | 
16 | CCc1c(N)cc(Cl)c(CC)c1NC(=O)N(Cc1ccc(C(F)(F)F)nc1)c1ccc(C(C)C)cc1 [compound 87, 3-(3-amino-5-chloro-2,6-diethyl-phenyl)-1-(4-isopropyl-phenyl)-1-(6-trifluoromethyl-pyridin-3-ylmethyl)-urea] | 200 to 5000 nM | 
17 | CCc1ccc(NCC(N)=O)c(CC)c1NC(=O)N(Cc1ccc(OC)cc1)c1ccc(C(C)C)cc1 [compound 29, 2-{2,4-diethyl-3-[3-(4-isopropyl-phenyl)-3-(4-methoxy-benzyl)-ureido]-phenylamino}-acetamide] | 200 to 5000 nM | 
